Consider eleven compounds from ChEMBL document CHEMBL1649262, “Nosocomial spread of colistin-only-sensitive sequence type 235 Pseudomonas aeruginosa isolates producing the extended-spectrum beta-lactamases GES-1 and GES-5 in Spain” (2009).

For test [1], the system named is Pseudomonas aeruginosa. The test is described as follows: Antibacterial activity against mexB and mexY expressing Pseudomonas aeruginosa PA-A1 harboring GyrA T83I, ParC S87L and IS1001 insertion at position 629 in OprD gene by Etest method. In kind it is functional.
Test [2] concerns Pseudomonas aeruginosa. The experiment in a line: Antibacterial activity against Pseudomonas aeruginosa PAO1 by Etest method. In kind it is functional.
Test [3] has as its system Pseudomonas aeruginosa. The experiment in a line: Antibacterial activity against mexB and mexY expressing Pseudomonas aeruginosa PA-A2 harboring GyrA T83I, ParC S87L and IS1001 insertion at position 629 in OprD gene by Etest method. Type of test: functional.
Test [4] concerns Pseudomonas aeruginosa. The experiment in a line: Antibacterial activity against mexB and mexY expressing Pseudomonas aeruginosa PA-A3 harboring GyrA T83I, ParC S87L and IS1001 insertion at position 629 in OprD gene by Etest method. In kind it is functional.
Test [5] deals with Pseudomonas aeruginosa. The experiment in a line: Antibacterial activity against Pseudomonas aeruginosa PAO1 harboring plasmid pA1 by Etest method. Type of test: functional.
For test [6], the system named is Pseudomonas aeruginosa. The test is described as follows: Antibacterial activity against Pseudomonas aeruginosa PAO1 by Etest method in presence of Tazobactam. In kind it is functional.
In test [7] the test system is Pseudomonas aeruginosa. The experiment in a line: Antibacterial activity against mexB and mexY expressing Pseudomonas aeruginosa PA-A1 harboring GyrA T83I, ParC S87L and IS1001 insertion at position 629 in OprD gene by Etest method in presence of Tazobactam. In kind it is functional.
The subject of test [8] is Pseudomonas aeruginosa. The test is described as follows: Antibacterial activity against mexB and mexY expressing Pseudomonas aeruginosa PA-A2 harboring GyrA T83I, ParC S87L and IS1001 insertion at position 629 in OprD gene by Etest method in presence of Tazobactam. Type of test: functional.
The test system of test [9] is Pseudomonas aeruginosa. The test is described as follows: Antibacterial activity against mexB and mexY expressing Pseudomonas aeruginosa PA-A3 harboring GyrA T83I, ParC S87L and IS1001 insertion at position 629 in OprD gene by Etest method in presence of Tazobactam. Type of test: functional.
Test [10] relates to Pseudomonas aeruginosa. The experiment in a line: Antibacterial activity against Pseudomonas aeruginosa PAO1 harboring plasmid pA1 by Etest method in presence of Tazobactam. Type of test: functional.
The subject of test [11] is Pseudomonas aeruginosa. The test is described as follows: Antibacterial activity against Pseudomonas aeruginosa PAO1 harboring plasmid pA1 by Etest in presence of clavulanic acid.

In brackets after ≈: the same amount, converted by molar mass.

One may read the MIC as the lowest concentration found to suppress growth. Take COLISTIN: the MIC in the test on Pseudomonas aeruginosa [1] turned out to be 2 µg/mL; in the test on Pseudomonas aeruginosa [2] it was 1 µg/mL; in the test with Pseudomonas aeruginosa [3], 2 µg/mL; against Pseudomonas aeruginosa [4], 2 µg/mL; with Pseudomonas aeruginosa [5], 1 µg/mL.
Turning to `C[C@H]1[C@H](NC(=O)/C(=N\OC(C)(C)C(=O)O)c2csc(N)n2)C(=O)N1S(=O)(=O)O` [AZTREONAM], the MIC against Pseudomonas aeruginosa [1] was more than 256 µg/mL; in the test on Pseudomonas aeruginosa [2] it was 1.5 µg/mL (≈ 3.44 µM); with Pseudomonas aeruginosa [3] it was more than 256 µg/mL; in the test with Pseudomonas aeruginosa [4] it was more than 256 µg/mL; in the test on Pseudomonas aeruginosa [5] it was more than 256 µg/mL.
On to `CO/N=C(\C(=O)N[C@@H]1C(=O)N2C(C(=O)[O-])=C(C[N+]3(C)CCCC3)CS[C@H]12)c1csc(N)n1` [CEFEPIME], for which the MIC against Pseudomonas aeruginosa [1], in the test on Pseudomonas aeruginosa [3], in the test on Pseudomonas aeruginosa [4] and in the test on Pseudomonas aeruginosa [5] was more than 256 µg/mL throughout.
With `NC[C@H]1O[C@H](O[C@H]2[C@H](O)[C@@H](O[C@H]3O[C@H](CO)[C@@H](O)[C@H](N)[C@H]3O)[C@H](N)C[C@@H]2N)[C@H](N)C[C@@H]1O` [TOBRAMYCIN], the MIC is more than 256 µg/mL against Pseudomonas aeruginosa [1]; 1 µg/mL (≈ 2.14 µM) against Pseudomonas aeruginosa [2]; more than 256 µg/mL in the test on Pseudomonas aeruginosa [3]; more than 256 µg/mL in the test on Pseudomonas aeruginosa [4]; 16 µg/mL (≈ 34.2 µM) in the test with Pseudomonas aeruginosa [5].
As for `O=C(O)c1cn(C2CC2)c2cc(N3CCNCC3)c(F)cc2c1=O` [CIPROFLOXACIN], the MIC in the test with Pseudomonas aeruginosa [1] was more than 32 µg/mL; against Pseudomonas aeruginosa [3] it was more than 32 µg/mL; with Pseudomonas aeruginosa [4], more than 32 µg/mL; with Pseudomonas aeruginosa [5], 0.064 µg/mL (≈ 0.193 µM).
Regarding `CC(C)(O/N=C(\C(=O)N[C@@H]1C(=O)N2C(C(=O)[O-])=C(C[n+]3ccccc3)CS[C@H]12)c1csc(N)n1)C(=O)O` [CEFTAZIDIME], the MIC in the test with Pseudomonas aeruginosa [1] was more than 256 µg/mL; in the test with Pseudomonas aeruginosa [2], 1 µg/mL (≈ 1.83 µM); against Pseudomonas aeruginosa [3], more than 256 µg/mL; against Pseudomonas aeruginosa [4], more than 256 µg/mL; in the test on Pseudomonas aeruginosa [5] it was more than 256 µg/mL.
As to GENTAMICIN, the MIC against Pseudomonas aeruginosa [1] was more than 256 µg/mL; with Pseudomonas aeruginosa [2], 2 µg/mL; against Pseudomonas aeruginosa [3], more than 256 µg/mL; in the test with Pseudomonas aeruginosa [4], more than 256 µg/mL.
On to `NCC[C@H](O)C(=O)N[C@@H]1C[C@H](N)[C@@H](O[C@H]2O[C@H](CN)[C@@H](O)[C@H](O)[C@H]2O)[C@H](O)[C@H]1O[C@H]1O[C@H](CO)[C@@H](O)[C@H](N)[C@H]1O` [AMIKACIN], for which the MIC was more than 256 µg/mL in the test on Pseudomonas aeruginosa [1]; 4 µg/mL (≈ 6.83 µM) in the test on Pseudomonas aeruginosa [2]; more than 256 µg/mL in the test with Pseudomonas aeruginosa [3]; more than 256 µg/mL against Pseudomonas aeruginosa [4]; more than 32 µg/mL against Pseudomonas aeruginosa [5].
Consider `CCN1CCN(C(=O)N[C@@H](C(=O)N[C@@H]2C(=O)N3[C@@H]2SC(C)(C)[C@@H]3C(=O)O)c2ccccc2)C(=O)C1=O` [PIPERACILLIN], for which the MIC in the test with Pseudomonas aeruginosa [1] was more than 256 µg/mL; in the test with Pseudomonas aeruginosa [2], 3 µg/mL (≈ 5.8 µM); in the test on Pseudomonas aeruginosa [3], more than 256 µg/mL; in the test with Pseudomonas aeruginosa [4] it was more than 256 µg/mL; in the test with Pseudomonas aeruginosa [5], more than 256 µg/mL; in the test on Pseudomonas aeruginosa [6], 2 µg/mL. Besides, the MIC with Pseudomonas aeruginosa [7], in the test on Pseudomonas aeruginosa [8], with Pseudomonas aeruginosa [9] and with Pseudomonas aeruginosa [10] was more than 256 µg/mL in each case.
As for `C[C@@H](O)[C@H]1C(=O)N2C(C(=O)O)=C(S[C@@H]3CN[C@H](C(=O)N(C)C)C3)[C@H](C)[C@H]12` [MEROPENEM], the MIC was more than 32 µg/mL against Pseudomonas aeruginosa [1]; 0.25 µg/mL (≈ 0.652 µM) in the test on Pseudomonas aeruginosa [2]; more than 32 µg/mL in the test on Pseudomonas aeruginosa [3]; more than 32 µg/mL in the test on Pseudomonas aeruginosa [4]; more than 32 µg/mL with Pseudomonas aeruginosa [5].
With `C[C@@H](O)[C@H]1C(=O)N2C(C(=O)O)=C(SCCNC=N)C[C@H]12` [IMIPENEM ANHYDROUS], the MIC against Pseudomonas aeruginosa [1] is more than 32 µg/mL; in the test on Pseudomonas aeruginosa [2], 1 µg/mL (≈ 3.34 µM); in the test with Pseudomonas aeruginosa [3] it was more than 32 µg/mL; with Pseudomonas aeruginosa [4], more than 32 µg/mL; in the test on Pseudomonas aeruginosa [5], 8 µg/mL (≈ 26.7 µM); with Pseudomonas aeruginosa [11], 4 µg/mL.
